Laboratory results taken from paper PMC6523444, “Antioxidant Activities of Alkyl Substituted Pyrazine Derivatives of Chalcones—In Vitro and In Silico Study” (Antioxidants, 2019).
Each block holds one compound with its values, some of them ahead of it.

Key:
[1] = MTS cytotoxicity assay, overnight, HepG2; format: cell-based; conditions: human, HepG2 cells, concentration range 100–0.2 µM
Method: (§1) Adherent liver hepatocellular carcinoma cell line HepG2 (ATCC, HB-8065) and human acute monocytic leukemia cell line in suspension THP-1 (ATCC, TIB-202) were purchased from American Type Culture Collection (ATCC, Manassas, VA, USA). Cell lines were maintained in complete DMEM/F12 medium (Sigma, D8437, St. Louis, MO, USA) and complete RPMI1640 (Sigma, R7388, St. Louis, MO, USA) respectively, supplemented with 10% Fetal Calf Serum (FCS, Sigma, F7524, St. Louis, MO, USA) at 37 °C in 5% CO2 atmosphere.
(§2) A cytotoxicity assay was performed using MTS CellTiter 96 AQueous One Solution Cell Proliferation Assay (Promega, G3580, Madison, WI, USA). Double dilutions of compounds were prepared in the concentration range of 100–0.2 µM within microplate wells. In each well, 5 × 10^4 cells were added and the plates were incubated overnight at 37 °C in 5% CO2 atmosphere. Following this, 10 µL of MTS (3-(4,5-dimethylthiazol-2-yl)-5-(3-carboxymethoxyphenyl)-2-(4-sulfophenyl)-2H -tetrazolium) reagent was dispensed per well and the plates were incubated for 1–6 h at 37 °C in 5% CO2 atmosphere. Control wells consisted of media only (blank) or cells with 1% DMSO added (control). The absorbance was recorded at 490 nm using a Wallac Victor2 microplate reader (PerkinElmer, Waltham, MA, USA). Results were analyzed in GraphPad Prism software (GraphPad Software, San Diego, CA, USA).

[2] = MTS cytotoxicity assay, overnight, THP-1; format: cell-based, human; conditions: human, THP-1 cells, overnight, concentration range 100–0.2 µM
Method: as §1, §2

THP-1 = experiment: MTS cytotoxicity assay, overnight, THP-1; format: cell-based, human; conditions: up to 100 μM overnight
Method: as §1, §2

[3] = DPPH• radical scavenging assay; conditions: 100 µM DPPH•, 30 min, room temperature, dark; read-out: DPPH● radical scavenging (RS) activity IC50
Method: Vitamin C (Acros Organics, Geel, Belgium) was used as a standard antioxidant control and was prepared in the same way as tested compounds. Dilutions of tested compounds and vitamin C were prepared in a final concentration range of 1 mM–0.01 μM. One milliliter of compound solution was added to 1 mL of freshly prepared DPPH• solution (3.9 mg/50 mL ethanol; final concentration of 100 µM) and the reaction mixture was incubated in the dark at room temperature for 30 min. Absorbance was recorded at 540 nm using a 96-well Wallac Victor2 plate reader. Neutralization of DPPH• radical by a compound was calculated according to the following formula:RS activity (%) = [(A0 − A1)/A0] × 100(1) where A0/A1 is the control/sample absorbance. The results were averages of three measurements. The IC50 value was calculated using GraphPad Prism software (GraphPad Software, San Diego, CA, USA).

[4] = system: THP-1 cells treated by H2O2; experiment: Growth of THP-1 cells pre- or post-treated with H2O2, trypan blue exclusion assay; format: cell-based, human; conditions: for Effect against cytotoxic / pro-oxidative activity of H2O2 on THP-1 cells: compound at DPPH• IC50 concentration, before or after 5 mM H2O2; for Recovery of THP-1 cells after initial damage: from the 48 h point, H2O2 plus compound
Method: The substances without cytotoxic effects and with RS activity were tested for antioxidant potential at the cellular level using THP-1 cells treated by H2O2 [28]. The cells were exposed to the IC50 concentrations of the compounds determined by the DPPH• assay. Compounds were applied 30 min either before or after exposure to 5 mM of H2O2, which is equivalent to the cytotoxic ED50 dose of H2O2 for the THP-1 cells. The cell growth was analyzed every 24 h, via the trypan blue exclusion assay using a Bürker-Türk hemocytometer (Brand GMBH + CO KG, Wertheim, Germany), during a 4-day period. All assays were carried out in triplicates. The comparison of mean values was done by the two-tailed Student’s t-test.

aldose reductase ALR2 = system: aldose reductase ALR2; design: method as in doi:10.1007/s00706-018-2146-6; conditions: cited from earlier work
[5] = system: cell lines A549, PC3, MCF-7, HT-29 and WRL68; design: method as in PMID 22634834; conditions: cited from earlier work
[6] = design: method as in doi:10.1627/jpi.51.298; conditions: oxygen atmosphere, 50 °C, compared with para-coumaric acid fragment; cited from earlier work
THP-1 cells = conditions: cited from earlier work

Structure (SMILES): O=C(/C=C/c1ccc(O)cc1)c1ccccc1 [Compound 3]
- IC50 [1]: > 100 µM
- IC50 [2]: > 100 µM
- IC50 [3]: > 1000 µM
- ALR2 inhibition activity (aldose reductase ALR2): comparable ALR2 inhibition
- Cytotoxicity against A549, PC3, MCF-7, HT-29 and WRL68 [5]: significant cytotoxicity

Structure (SMILES): O=C(/C=C/c1ccccc1O)c1ccccc1 [Compound 1]
- IC50 [1]: > 100 µM
- IC50 [2]: 70 µM
- IC50 [3]: > 1000 µM

Structure (SMILES): CC(C)c1cnc(C(=O)/C=C/c2cccc(O)c2)cn1 [Compound 2c]
- IC50 [1]: 97 µM
- IC50 [2]: 83 µM
- IC50 [3]: > 1000 µM

Structure (SMILES): O=C(/C=C/c1cccc(O)c1)c1ccccc1 [Compound 2]
- IC50 [1]: > 100 µM
- IC50 [2]: 51 µM
- IC50 [3]: > 1000 µM

Structure (SMILES): CCCCc1cnc(C(=O)/C=C/c2cccc(O)c2)cn1 [Compound 2d]
- IC50 [1]: > 100 µM
- IC50 [2]: 67 µM
- IC50 [3]: > 1000 µM

Structure (SMILES): CC(C)Cc1cnc(C(=O)/C=C/c2cccc(O)c2)cn1 [Compound 2e]
- IC50 [1]: > 100 µM
- IC50 [2]: > 100 µM

Structure (SMILES): O=C(/C=C/c1ccccc1O)c1cnccn1 [Compound 1a]
- IC50 [1]: > 100 µM
- IC50 [2]: 40 µM
- IC50 [3]: > 1000 µM
- RS activity in styrene auto-oxidation [6]: significant RS activity

Structure (SMILES): COc1cc(/C=C/C(=O)c2ccccc2)ccc1O [Compound 4]
- IC50 [1]: > 100 µM
- IC50 [2]: > 100 µM

Structure (SMILES): CC(C)(C)c1cnc(C(=O)/C=C/c2ccc(O)cc2)cn1 [Compound 3f]
- IC50 [1]: > 100 µM
- IC50 [2]: > 100 µM

Structure (SMILES): CCCc1cnc(C(=O)/C=C/c2ccccc2O)cn1 [Compound 1b]
- IC50 [1]: > 100 µM
- IC50 [2]: > 100 µM

Structure (SMILES): OO [Compound H2O2, hydrogen peroxide]
- Cytotoxic ED50 dose for THP-1 cells (THP-1 cells): 5000 µM

Structure (SMILES): CC(C)(C)c1cnc(C(=O)/C=C/c2ccccc2O)cn1 [Compound 1f]
- IC50 [1]: > 100 µM
- IC50 [2]: > 100 µM

Structure (SMILES): CC(C)Cc1cnc(C(=O)/C=C/c2ccccc2O)cn1 [Compound 1e]
- IC50 [1]: > 100 µM
- IC50 [2]: 94 µM

Structure (SMILES): CC(C)Cc1cnc(C(=O)/C=C/c2ccc(O)cc2)cn1 [Compound 3e]
- IC50 [1]: > 100 µM
- IC50 [2]: > 100 µM

Structure (SMILES): CCCc1cnc(C(=O)/C=C/c2ccc(O)cc2)cn1 [Compound 3b]
- IC50 [1]: > 100 µM
- IC50 [2]: 94 µM

Structure (SMILES): CCCCc1cnc(C(=O)/C=C/c2ccccc2O)cn1 [Compound 1d]
- IC50 [1]: 86 µM
- IC50 [2]: 27 µM
- IC50 [3]: > 1000 µM

Structure (SMILES): COc1cc(/C=C/C(=O)c2cnc(C(C)(C)C)cn2)ccc1O [Compound 4f]
- IC50 [1]: > 100 µM
- IC50 [2]: 36 µM

Structure (SMILES): CCCc1cnc(C(=O)/C=C/c2cccc(O)c2)cn1 [Compound 2b]
- IC50 [1]: > 100 µM
- IC50 [2]: 48 µM

Structure (SMILES): O=C(/C=C/c1cccc(O)c1)c1cnccn1 [Compound 2a]
- IC50 [1]: 100 µM
- IC50 [2]: 50 µM
- IC50 [3]: > 1000 µM
- ALR2 inhibition activity (aldose reductase ALR2): moderate ALR2 inhibition activity

Structure (SMILES): CC(C)c1cnc(C(=O)/C=C/c2ccccc2O)cn1 [Compound 1c]
- IC50 [1]: > 100 µM
- IC50 [2]: 96 µM
- IC50 [3]: > 1000 µM

Structure (SMILES): CC(C)(C)c1cnc(C(=O)/C=C/c2cccc(O)c2)cn1 [Compound 2f]
- IC50 [1]: > 100 µM
- IC50 [2]: > 100 µM

The next lines start with results.

- IC50 [3]: 39 µM
Structure (SMILES): COc1cc(/C=C/C(=O)c2cnc(C(C)C)cn2)ccc1O [Compound 4c]
- IC50 [1]: > 100 µM
- IC50 [2]: > 100 µM
- Cytotoxicity on THP-1 cells, in words (THP-1): non-toxic
- Attenuation of H2O2 effect on THP-1 cells, compound added before H2O2 ([4]; compound at DPPH• IC50 concentration 30 min before 5 mM H2O2, 4 days): most efficient reduction of cytotoxic effect of H2O2
- Effect against cytotoxic / pro-oxidative activity of H2O2 on THP-1 cells [4]: greater attenuation of H2O2 effects
- Recovery of THP-1 cells after initial damage [4]: considerably greater

- IC50 [3]: > 1000 µM
Structure (SMILES): O=C(/C=C/c1ccc(O)cc1)c1cnccn1 [Compound 3a]
- IC50 [1]: > 100 µM
- IC50 [2]: 97 µM
- ALR2 inhibition activity (aldose reductase ALR2): moderate ALR2 inhibition activity
- RS activity in styrene auto-oxidation [6]: significant RS activity

- IC50 [3]: > 1000 µM
Structure (SMILES): CCCCc1cnc(C(=O)/C=C/c2ccc(O)cc2)cn1 [Compound 3d]
- IC50 [1]: > 100 µM
- IC50 [2]: 83 µM

- IC50 [3]: > 1000 µM
Structure (SMILES): CC(C)c1cnc(C(=O)/C=C/c2ccc(O)cc2)cn1 [Compound 3c]
- IC50 [1]: > 100 µM
- IC50 [2]: 78 µM

- IC50 [3]: 46 µM
Structure (SMILES): COc1cc(/C=C/C(=O)c2cnc(CC(C)C)cn2)ccc1O [Compound 4e]
- IC50 [1]: > 100 µM
- IC50 [2]: > 100 µM
- Cytotoxicity on THP-1 cells, in words (THP-1): non-toxic
- Effect of the pure substance on the growth of THP-1 cells ([4]; compound alone at its DPPH• IC50 concentration, 96 h, Figure 2a): no considerable effects
- Effect against cytotoxic / pro-oxidative activity of H2O2 on THP-1 cells [4]: greater attenuation of H2O2 effects
- Recovery of THP-1 cells after initial damage [4]: considerably greater

- IC50 [3]: 186 µM
Structure (SMILES): COc1cc(/C=C/C(=O)c2cnccn2)ccc1O [Compound 4a]
- IC50 [1]: > 100 µM
- IC50 [2]: > 100 µM
- Cytotoxicity on THP-1 cells, in words (THP-1): non-toxic
- Effect against cytotoxic / pro-oxidative activity of H2O2 on THP-1 cells [4]: lowest effect
- RS activity in styrene auto-oxidation [6]: significant RS activity
